Reference: ChEMBL document CHEMBL1212738, “Phenotypic and genotypic characterization of Enterobacteriaceae with decreased susceptibility to carbapenems: results from large hospital-based surveillance studies in China” (2010)
In brackets after ≈: the same amount, converted by molar mass.

Tests used:
[1] = system: Klebsiella pneumoniae; test: Antimicrobial activity against Klebsiella pneumoniae ZJ68T expressing CTX-M-15 by CLSI method; format: functional
[2] = system: Klebsiella pneumoniae; test: Antimicrobial activity against carbapenem-resistant Klebsiella pneumoniae ZJ69 deficient in SHV-28, ompK35/36 by CLSI method; format: functional
[3] = system: Klebsiella pneumoniae; test: Antimicrobial activity against Klebsiella pneumoniae PU104T expressing TEM-1, CTX-M-15 by CLSI method; format: functional
[4] = system: Escherichia coli; test: Antimicrobial activity against carbapenem-resistant Escherichia coli PU101 deficient in TEM-1, CTX-M-14, CMY-2, ompC by CLSI method; format: functional
[5] = system: Escherichia coli; test: Antimicrobial activity against Escherichia coli PU102T expressing TEM-1, CTX-M-14, CMY-2 by CLSI method; format: functional
[6] = system: Klebsiella aerogenes; test: Antimicrobial activity against carbapenem-resistant Enterobacter aerogenes PU41 deficient in CTX-M-14, DHA-1, qnrS1, ompC DEc, ompF by CLSI method; format: functional
[7] = system: Klebsiella aerogenes; test: Antimicrobial activity against Enterobacter aerogenes PU41T expressing CTX-M-14, DHA-1, qnrS1 by CLSI method; format: functional
[8] = system: Escherichia coli; test: Antimicrobial activity against carbapenem-resistant Escherichia coli PU43 deficient in TEM-1, CTX-M-14, aac(6')-Ib, ompC/F by CLSI method; format: functional
[9] = system: Escherichia coli; test: Antimicrobial activity against carbapenem-resistant Escherichia coli HX74 deficient in TEM-1, CTX-M-14, CTX-M-3, aac(6')-Ibcr, ompC/F by CLSI method; format: functional
[10] = system: Enterobacter cloacae; test: Antimicrobial activity against carbapenem-resistant Enterobacter cloacae NJ88 deficient in CTX-M-14, ompC/F by CLSI method; format: functional
[11] = system: Enterobacter cloacae; test: Antimicrobial activity against carbapenem-resistant Enterobacter cloacae NJ89 deficient in CTX-M-14, ompC/F by CLSI method; format: functional
[12] = system: Enterobacter cloacae; test: Antimicrobial activity against carbapenem-resistant Enterobacter cloacae NJ91 deficient in CTX-M-14, ompC/F by CLSI method; format: functional
[13] = system: Klebsiella pneumoniae; test: Antimicrobial activity against carbapenem-resistant Klebsiella pneumoniae GZ84 deficient in SHV-11, aac(6')-Ib-cr, ompK35 by CLSI method; format: functional
[14] = system: Klebsiella pneumoniae; test: Antimicrobial activity against Klebsiella pneumoniae ZJ18T expressing KPC-2, DHA-1 by CLSI method; format: functional
[15] = system: Klebsiella pneumoniae; test: Antimicrobial activity against carbapenem-resistant Klebsiella pneumoniae ZJ70 deficient in KPC-2, SHV-11, CTX-M-14, ompK35/36 by CLSI method; format: functional
[16] = system: Klebsiella pneumoniae; test: Antimicrobial activity against carbapenem-resistant Klebsiella pneumoniae ZJ71 deficient in KPC-2, TEM-1, SHV-11, CTX-M-14, ompK35 by CLSI method; format: functional
[17] = system: Klebsiella pneumoniae; test: Antimicrobial activity against Klebsiella pneumoniae ZJ71T expressing KPC-2 by CLSI method; format: functional
[18] = system: Klebsiella pneumoniae; test: Antimicrobial activity against Klebsiella pneumoniae ZJ99 expressing KPC-2, CTX-M-3, qnrS1, ompK35 DE by CLSI method; format: functional
[19] = system: Klebsiella pneumoniae; test: Antimicrobial activity against Klebsiella pneumoniae ZJ99T expressing KPC-2, CTX-M-3, qnrS1 by CLSI method; format: functional
[20] = system: Escherichia coli; test: Antimicrobial activity against Escherichia coli ZJ86T expressing KPC-2 by CLSI method; format: functional
[21] = system: Escherichia coli; test: Antimicrobial activity against Escherichia coli ZJ87T expressing KPC-2 by CLSI method; format: functional
[22] = system: Klebsiella pneumoniae; test: Antimicrobial activity against carbapenem-resistant Klebsiella pneumoniae FZ47 deficient in IMP-8, TEM-1, SHV-11, CTX-M-14, qnrB2, aac(6')-Ib, ompK35/36 by CLSI method; format: functional
[23] = system: Klebsiella pneumoniae; test: Antimicrobial activity against carbapenem-resistant Klebsiella pneumoniae FZ49 deficient in IMP-8, TEM-1, SHV-11, CTX-M-14, qnrB2, aac(6')-Ib, ompK35/36 by CLSI method; format: functional
[24] = system: Klebsiella pneumoniae; test: Antimicrobial activity against Klebsiella pneumoniae FZ49T expressing IMP-8, TEM-1, CTX-M-14, qnrB2, aac(6')-Ib by CLSI method; format: functional
[25] = system: Klebsiella pneumoniae; test: Antimicrobial activity against Klebsiella pneumoniae GZ64T expressing IMP-4 by CLSI method; format: functional
[26] = system: Klebsiella pneumoniae; test: Antimicrobial activity against Klebsiella pneumoniae WH77 expressing IMP-4, TEM-1, SHV-14, CTX-M-3, qnrS1 by CLSI method; format: functional
[27] = system: Citrobacter freundii; test: Antimicrobial activity against Citrobacter freundii SZ62 expressing IMP-4, TEM-1, CMY-2, qnrS1, aac(6')-Ib-cr by CLSI method; format: functional
[28] = system: Citrobacter freundii; test: Antimicrobial activity against Citrobacter freundii SZ63 expressing IMP-4, qnrS1by CLSI method; format: functional
[29] = system: Enterobacter cloacae; test: Antimicrobial activity against carbapenem-resistant Enterobacter cloacae SZ92 deficient in IMP-4, TEM-1, CTX-M-14, DHA-1, qnrB10/B4-like, aac(6')-Ib, ompC by CLSI method; format: functional
[30] = system: Enterobacter cloacae; test: Antimicrobial activity against carbapenem-resistant Enterobacter cloacae WH103 deficient in IMP-4, TEM-1, CTX-M-3, qnrS1, ompC by CLSI method; format: functional
[31] = system: Klebsiella pneumoniae; test: Antimicrobial activity against carbapenem-resistant Klebsiella pneumoniae CY1 deficient in SHV-11, DHA-1, ompK35/36 by CLSI method; format: functional
[32] = system: Klebsiella pneumoniae; test: Antimicrobial activity against Klebsiella pneumoniae CY1T expressing SHV-11, DHA-1 by CLSI method; format: functional
[33] = system: Klebsiella pneumoniae; test: Antimicrobial activity against carbapenem-resistant Klebsiella pneumoniae PU3 deficient in DHA-1, aac(6')-Ib-cr, ompK35/36 by CLSI method; format: functional
[34] = system: Klebsiella pneumoniae; test: Antimicrobial activity against carbapenem-resistant Klebsiella pneumoniae PU8 deficient in SHV-11, DHA-1, aac(6')-Ib-cr, ompK35/36 by CLSI method; format: functional
[35] = system: Klebsiella pneumoniae; test: Antimicrobial activity against carbapenem-resistant Klebsiella pneumoniae SZ61 deficient in TEM-1, SHV-1a, CMY-2, ompK35/36 by CLSI method; format: functional
[36] = system: Klebsiella pneumoniae; test: Antimicrobial activity against carbapenem-resistant Klebsiella pneumoniae GZ66 deficient in SHV-11, DHA-1, ompK35/36 by CLSI method; format: functional
[37] = system: Klebsiella pneumoniae; test: Antimicrobial activity against carbapenem-resistant Klebsiella pneumoniae XJ81 deficient in TEM-1, SHV-12, DHA-1, aac(6')-Ib, ompK35/36 by CLSI method; format: functional
[38] = system: Escherichia coli; test: Antimicrobial activity against Escherichia coli C600 transconjugant SZ62T expressing IMP-4, qnrS1by CLSI method
[39] = system: Escherichia coli; test: Antimicrobial activity against Escherichia coli C600 transconjugant XJ81T expressing TEM-1, SHV-12, aac(6')-Ib by CLSI method
[40] = system: Escherichia coli; test: Antimicrobial activity against carbapenem-resistant Escherichia coli ZJ86 expressing KPC-2, TEM-1 with ompC loss by CLSI method
[41] = system: Escherichia coli; test: Antimicrobial activity against Escherichia coli C600 transconjugant WH77T expressing IMP-4, TEM-1, CTX-M-3, qnrS1 by CLSI method

Molecule: C[C@@H](O)[C@H]1C(=O)N2C(C(=O)O)=C(S[C@@H]3CN[C@H](C(=O)Nc4cccc(C(=O)O)c4)C3)[C@H](C)[C@H]12
- MIC [1]: 0.064 µg/mL (≈ 0.135 µM)
- MIC [2]: 32 µg/mL (≈ 67.3 µM)
- MIC [3]: 0.016 µg/mL (≈ 0.0336 µM)
- MIC [4]: 128 µg/mL (≈ 269 µM)
- MIC [5]: 0.25 µg/mL (≈ 0.526 µM)
- MIC [6]: 64 µg/mL (≈ 135 µM)
- MIC [7]: 0.032 µg/mL (≈ 0.0673 µM)
- MIC [8]: 32 µg/mL (≈ 67.3 µM)
- MIC [9]: 16 µg/mL (≈ 33.6 µM)
- MIC [10]: 128 µg/mL (≈ 269 µM)
- MIC [11]: 128 µg/mL (≈ 269 µM)
- MIC [12]: 128 µg/mL (≈ 269 µM)
- MIC [13]: 8 µg/mL (≈ 16.8 µM)
- MIC [14]: 2 µg/mL (≈ 4.21 µM)
- MIC [15]: > 256 µg/mL
- MIC [16]: 16 µg/mL (≈ 33.6 µM)
- MIC [17]: 4 µg/mL (≈ 8.41 µM)
- MIC [18]: 8 µg/mL (≈ 16.8 µM)
- MIC [19]: 8 µg/mL (≈ 16.8 µM)
- MIC [20]: 16 µg/mL (≈ 33.6 µM)
- MIC [21]: 16 µg/mL (≈ 33.6 µM)
- MIC [22]: 8 µg/mL (≈ 16.8 µM)
- MIC [23]: 4 µg/mL (≈ 8.41 µM)
- MIC [24]: 4 µg/mL (≈ 8.41 µM)
- MIC [25]: 4 µg/mL (≈ 8.41 µM)
- MIC [26]: 4 µg/mL (≈ 8.41 µM)
- MIC [27]: 4 µg/mL (≈ 8.41 µM)
- MIC [28]: 4 µg/mL (≈ 8.41 µM)
- MIC [29]: 32 µg/mL (≈ 67.3 µM)
- MIC [30]: 32 µg/mL (≈ 67.3 µM)
- MIC [31]: 32 µg/mL (≈ 67.3 µM)
- MIC [32]: 0.008 µg/mL (≈ 0.0168 µM)
- MIC [33]: 64 µg/mL (≈ 135 µM)
- MIC [34]: 32 µg/mL (≈ 67.3 µM)
- MIC [35]: 64 µg/mL (≈ 135 µM)
- MIC [36]: 64 µg/mL (≈ 135 µM)
- MIC [37]: 64 µg/mL (≈ 135 µM)
- MIC [38]: 4 µg/mL (≈ 8.41 µM)
- MIC [39]: 0.008 µg/mL (≈ 0.0168 µM)
- MIC [40]: 32 µg/mL (≈ 67.3 µM)
- MIC [41]: 4 µg/mL (≈ 8.41 µM)

Molecule: POLYMYXIN B
- MIC [1]: 0.5 µg/mL
- MIC [2]: 1 µg/mL
- MIC [3]: 0.25 µg/mL
- MIC [4]: 0.5 µg/mL
- MIC [5]: 0.25 µg/mL
- MIC [6]: 0.5 µg/mL
- MIC [7]: 0.25 µg/mL
- MIC [8]: 0.5 µg/mL
- MIC [9]: 0.5 µg/mL
- MIC [10]: 0.5 µg/mL
- MIC [11]: 0.5 µg/mL
- MIC [12]: 0.5 µg/mL
- MIC [13]: 0.5 µg/mL
- MIC [14]: 0.25 µg/mL
- MIC [15]: 0.5 µg/mL
- MIC [16]: 1 µg/mL
- MIC [17]: 0.5 µg/mL
- MIC [18]: 1 µg/mL
- MIC [19]: 0.25 µg/mL
- MIC [20]: 0.5 µg/mL
- MIC [21]: 0.25 µg/mL
- MIC [22]: 1 µg/mL
- MIC [23]: 1 µg/mL
- MIC [24]: 0.25 µg/mL
- MIC [25]: 0.5 µg/mL
- MIC [26]: 1 µg/mL
- MIC [27]: 0.5 µg/mL
- MIC [28]: 0.5 µg/mL
- MIC [29]: 0.5 µg/mL
- MIC [30]: 0.5 µg/mL
- MIC [31]: 1 µg/mL
- MIC [32]: 0.25 µg/mL
- MIC [33]: 0.5 µg/mL
- MIC [34]: 1 µg/mL
- MIC [35]: 0.5 µg/mL
- MIC [36]: 0.5 µg/mL
- MIC [37]: 0.5 µg/mL

Molecule: C[C@@H](O)[C@H]1C(=O)N2C(C(=O)O)=C(S[C@@H]3CN[C@H](C(=O)N(C)C)C3)[C@H](C)[C@H]12 [MEROPENEM]
- MIC [1]: 0.032 µg/mL (≈ 0.0834 µM)
- MIC [2]: 4 µg/mL (≈ 10.4 µM)
- MIC [3]: 0.032 µg/mL (≈ 0.0834 µM)
- MIC [5]: 0.032 µg/mL (≈ 0.0834 µM)
- MIC [6]: 8 µg/mL (≈ 20.9 µM)
- MIC [7]: 0.032 µg/mL (≈ 0.0834 µM)
- MIC [13]: 1 µg/mL (≈ 2.61 µM)
- MIC [14]: 1 µg/mL (≈ 2.61 µM)
- MIC [15]: 256 µg/mL (≈ 668 µM)
- MIC [17]: 4 µg/mL (≈ 10.4 µM)
- MIC [20]: 8 µg/mL (≈ 20.9 µM)
- MIC [21]: 8 µg/mL (≈ 20.9 µM)
- MIC [22]: 2 µg/mL (≈ 5.22 µM)
- MIC [23]: 2 µg/mL (≈ 5.22 µM)
- MIC [24]: 1 µg/mL (≈ 2.61 µM)
- MIC [25]: 2 µg/mL (≈ 5.22 µM)
- MIC [27]: 4 µg/mL (≈ 10.4 µM)
- MIC [28]: 4 µg/mL (≈ 10.4 µM)
- MIC [29]: 8 µg/mL (≈ 20.9 µM)
- MIC [30]: 8 µg/mL (≈ 20.9 µM)
- MIC [34]: 8 µg/mL (≈ 20.9 µM)
- MIC [35]: 8 µg/mL (≈ 20.9 µM)
- MIC [36]: 4 µg/mL (≈ 10.4 µM)
- MIC [37]: 2 µg/mL (≈ 5.22 µM)
- MIC [38]: 4 µg/mL (≈ 10.4 µM)
- MIC [40]: 8 µg/mL (≈ 20.9 µM)
- MIC [41]: 4 µg/mL (≈ 10.4 µM)
